According to patent US8940730B2, “Methods and compositions of treating a Flaviviridae family viral infection” (The Board of Trustees of the Leland Stanford Junior …, priority 2007, dated 2015):

Assays:
Huh7 cell line = test: MTT assay for HCV replicon reporter cell lines (cell toxicity); assay type: cell-based; settings: Homo sapiens, Huh-7; cell toxicity, MTT, top concentration 25 μM; read-out: Cell Viability EC50
[1] = system: HCV genotype 2a infectious clone; test: HCV genotype 2a infectious clone assay (Renilla luciferase); assay type: cell-based; settings: Hepatitis C virus, read-out: 2a (% activity @ 5 μM), 5 μM; % replication activity of control with no test compound
Experimental: The assays in parts A and B were used to generate the genotype 1b inhibitory activity and related cell toxicity (viability) data supported herein. This assay has been used to generate the genotype 2a inhibitory activity data supported herein.
(§1) 1) Wash cells once with PBS, trypsinize. […] Mix twice by pipeting. […] Make a common stock from all tubes. […] 15) Incubate for 24 hr before treatment.
(§2) 3) Repeat daily for 2 more days.

Huh7.5 cells = settings: human, 3 days
Experimental: as §1, §2
1) Alamar blue assay—a) Include medium for background subtraction (and also for seeing change in color easily). b) Aspirate medium. c) Make a stock of medium plus 10% Alamar blue. Total volume per well is 100 μl. d) Incubate for 2-2.5 hrs at 37° C. (or until there is a color change). c) Read plates at flex station.

hERG channel = biological target: T1, hERG channel (Homo sapiens, UniProt Q12809); test: HERG channel assay (whole cell patch clamp, CHO cells); assay type: cell-based; settings: CHO cells expressing hERG, tail current
T1 construct: host or cells: CHO (Chinese Hamster Ovary), stably transfected
Experimental: Solutions: For electrophysiological recordings, the following solutions were used. External Solution: 2 mM CaCl2; 2 mM MgCl2; 4 mM KCl; 150 mM NaCl; 10 mM Glucose; 10 mM HEPES; 310-320 mOsm; pH 7.4 (adjusted with 1M NaOH). Internal Solution: 140 mM KCl; 10 mM MgCl2; 6 mM EGTA; 5 mM HEPESNa; […]; 300-320 mOsm; pH 7.25 (adjusted with 1M KOH).
Next, 1 μM cisapride (positive control) was added.
Data Analysis: Data analysis was performed using DataXpress (Axon Instruments), Clampfit (Axon Instruments) and Origin (Originlab Corporation) software.
In addition, activity against hERG potassium channel was tested on representative compounds. […] Compounds having a structure similar to that of EBP288 (compounds that contain, in R3, an N-attached heterocycle where substitutions adjacent to the nitrogen are small) should have a similar activity in this assay. […] Compounds having a structure similar to the aforementioned compound (compounds that contain, in R3, a C-attached heterocycle where heteroatom is acylated N) should have a similar activity in this assay. Generally, compounds that show no or only low activity in the hERG assay are preferred.

HCV 1b RNA replicon = test: Luciferase assay for HCV genotype 1b replicon reporter cell lines; settings: Hepatitis C virus, Huh-7, 48 h, read-out: 1b EC50, 1b replicon, Huh7, 48 hours, top concentration 25 μM

T1 sequence (Q12809 whole entry): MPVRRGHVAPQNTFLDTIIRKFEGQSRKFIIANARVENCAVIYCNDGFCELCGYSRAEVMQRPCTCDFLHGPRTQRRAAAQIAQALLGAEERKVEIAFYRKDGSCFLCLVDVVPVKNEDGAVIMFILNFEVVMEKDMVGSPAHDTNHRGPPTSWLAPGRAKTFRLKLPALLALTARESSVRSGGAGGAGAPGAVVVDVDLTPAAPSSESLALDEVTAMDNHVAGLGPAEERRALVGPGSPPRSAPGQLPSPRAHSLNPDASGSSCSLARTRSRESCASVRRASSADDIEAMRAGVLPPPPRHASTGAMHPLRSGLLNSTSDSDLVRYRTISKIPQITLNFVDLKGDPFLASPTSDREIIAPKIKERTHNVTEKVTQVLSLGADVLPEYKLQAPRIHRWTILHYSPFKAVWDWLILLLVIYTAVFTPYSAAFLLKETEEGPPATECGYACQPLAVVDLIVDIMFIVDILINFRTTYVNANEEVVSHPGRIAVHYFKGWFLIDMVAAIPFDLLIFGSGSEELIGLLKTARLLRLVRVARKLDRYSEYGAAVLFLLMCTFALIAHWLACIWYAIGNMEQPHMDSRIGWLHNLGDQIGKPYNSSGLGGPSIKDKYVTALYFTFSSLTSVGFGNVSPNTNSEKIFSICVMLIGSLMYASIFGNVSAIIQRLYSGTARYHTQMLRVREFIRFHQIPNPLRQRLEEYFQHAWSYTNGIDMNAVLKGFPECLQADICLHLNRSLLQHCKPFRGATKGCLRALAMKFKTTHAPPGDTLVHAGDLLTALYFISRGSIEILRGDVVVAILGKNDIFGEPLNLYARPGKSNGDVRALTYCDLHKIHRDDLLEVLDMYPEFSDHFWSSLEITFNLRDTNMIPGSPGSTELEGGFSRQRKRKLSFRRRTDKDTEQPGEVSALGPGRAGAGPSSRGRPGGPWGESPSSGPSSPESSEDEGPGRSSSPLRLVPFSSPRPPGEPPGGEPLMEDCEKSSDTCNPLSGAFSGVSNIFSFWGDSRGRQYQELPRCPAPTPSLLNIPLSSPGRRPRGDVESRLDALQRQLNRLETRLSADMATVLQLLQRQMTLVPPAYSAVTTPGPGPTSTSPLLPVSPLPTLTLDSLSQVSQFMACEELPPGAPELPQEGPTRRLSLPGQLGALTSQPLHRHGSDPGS

| SMILES | EC50 (Huh7 cell line) [µM] | activity at 5 µM [1] [%] | 2a cell viability (@ 5 μM) (Huh7.5 cells) [%] | IC50 (hERG channel) [µM] | EC50 (HCV 1b RNA replicon) [µM] |
| --- | --- | --- | --- | --- | --- |
| OC[C@@H]1CCCN1CCCOc1nn(Cc2ccc(Cl)cc2)c2ccccc12 [EBP383] | > 25 | 35 | 100 | 0.9 | 4.2 |
| CCN(CC)c1ccc2c(c1)c(OCCCN1CCCC1)nn2Cc1ccc(Cl)cc1 [EBP534] | > 25 |  |  | 2.8 | 3.3 |
| O[C@H]1CC[C@H](O)N1CCCOc1nn(Cc2ccc(Cl)cc2)c2ccccc12 [EBP515] | > 25 |  |  | 2.6 | 4.9 |
| Clc1ccc(Cn2nc(OCCCN3CCC[C@H]3CN3CCCC3)c3ccccc32)cc1 [EBP395] | > 25 | 41 | 89 | 2 | 4.4 |
| CC(C)c1ccc(Cn2nc(OCCN3CCCC3)c3ccccc32)cc1 [EBP336] | > 25 | 38 | 95 |  | 5.1 |
| Clc1ccc(Cn2nc(OCCCN3CCC[C@H]3CNc3ccccc3)c3ccccc32)cc1 [EBP524] | > 25 |  |  | 2.6 | 8.3 |
| OC[C@H]1CCCN1CCCOc1nn(Cc2ccc(Cl)cc2)c2ccccc12 [EBP516] | > 25 |  |  | 0.81 | 4.7 |
| O[C@@H]1CCN(CCCOc2nn(Cc3ccc(Cl)cc3)c3ccccc23)C1 [EBP393] | > 25 | 42 | 100 | 0.9 | 4.5 |
| Clc1ccc(Cn2nc(OCCCN3CCCC3c3ccccc3)c3ccccc32)cc1 (stereo not shown) [EBP387] | > 25 | 35 | 100 | 3.3 | 6.4 |
| Clc1ccc(Cn2nc(OCCCN3CCCC3)c3ccccc32)cc1 [EBP288] | > 25 | 24 | 89 | 1 | 3.7 |
| C[C@H]1CCCN1CCCOc1nn(Cc2ccc(Cl)cc2)c2ccccc12 [EBP391] | > 25 | 35 | 100 | 0.23 | 4 |
| Clc1ccc(Cn2nc(OCC3CCNCC3)c3cc(Cl)ccc32)cc1 [EBP640] | > 25 |  |  | 5.3 | 5 |
